Measured values taken from patent US7919508B2, “3-piperidinylisochroman-5-ols as dopamine agonists” (Aventis Pharmaceuticals Inc., priority 2004, dated 2011).
Structures can show the parent of a compound that is named as a salt. Where two headings read alike, the source gives them in different places.

Assays:
[1] = biological target: T1, D1 receptor (Homo sapiens, UniProt P21728); test: D1 Activation Adenylyl Cyclase Assay (cAMP FlashPlate, D1 transfected CHO cell line); assay type: cell-based
T1 construct: expressed in transfected cells; host or cells: D1 transfected CHO cell line
T1 sequence (P21728 whole entry): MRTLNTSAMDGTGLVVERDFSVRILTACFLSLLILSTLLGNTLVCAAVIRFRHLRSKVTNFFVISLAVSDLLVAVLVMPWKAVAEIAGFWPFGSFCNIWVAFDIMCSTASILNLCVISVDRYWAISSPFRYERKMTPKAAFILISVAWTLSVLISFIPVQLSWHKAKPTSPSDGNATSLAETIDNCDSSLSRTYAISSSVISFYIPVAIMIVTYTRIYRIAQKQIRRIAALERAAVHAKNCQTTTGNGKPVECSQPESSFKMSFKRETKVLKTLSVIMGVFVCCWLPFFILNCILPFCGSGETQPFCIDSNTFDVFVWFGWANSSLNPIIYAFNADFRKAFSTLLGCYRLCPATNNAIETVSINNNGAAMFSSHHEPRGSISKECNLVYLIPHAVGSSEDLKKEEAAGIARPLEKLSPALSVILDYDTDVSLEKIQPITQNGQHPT
Summary of the method: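 D1-transfected CHO cells (50,000/well) were exposed to compound 1/10 serial dilutions for 8 min at RT; cAMP measured by competitive 125I-cAMP FlashPlate against a standard curve. Response normalised between basal and saturating D1 agonist; EC50 at half-maximal stimulation, plateau reported as % maximal dopamine stimulation.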

[2] = biological target: human dopamine D2Long (D2L) receptors (Homo sapiens, UniProt P14416)
Chain of human dopamine D2Long (D2L) receptors (P14416 whole entry): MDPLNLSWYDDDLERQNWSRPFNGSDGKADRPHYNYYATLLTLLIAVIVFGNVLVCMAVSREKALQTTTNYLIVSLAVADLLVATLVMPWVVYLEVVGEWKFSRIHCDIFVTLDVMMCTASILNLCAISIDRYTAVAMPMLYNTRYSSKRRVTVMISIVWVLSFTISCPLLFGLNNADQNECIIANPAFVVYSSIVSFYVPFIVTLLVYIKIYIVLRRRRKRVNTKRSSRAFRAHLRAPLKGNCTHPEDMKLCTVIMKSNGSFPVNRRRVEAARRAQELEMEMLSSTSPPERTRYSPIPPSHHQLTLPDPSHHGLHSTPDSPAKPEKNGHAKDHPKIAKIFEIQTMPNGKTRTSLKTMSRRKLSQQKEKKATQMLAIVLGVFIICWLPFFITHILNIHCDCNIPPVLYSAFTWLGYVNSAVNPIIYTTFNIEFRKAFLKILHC
Method: [N-Methyl-^3H]Spiroperidol Binding to Cloned Human Dopamine D2Long Receptors
This assay measures the in vitro activity of drugs on cloned human dopamine D2Long (D2L) receptors and predicts the direct dopamine-displacing properties of neuropsychiatric, cardiovascular and renal agents at human dopamine D2 receptors.
Cells were maintained in Ham's F12+10% Fetal Bovine Serum+Penicillin/Streptomycin (100 U/ml/100 μg/ml)+G418 (400 μg/ml) medium and were split using Trypsin-EDTA (1 ml/plate, room temperature for ˜2 min. or until cells have lifted off plates). • 2. […] Plates are incubated at 37° C.+5% CO2 for ˜3 days or until cells were confluent.
Cells are harvested by mechanical scraping, washed using PBS collected in 250 ml Corning polypropylene centrifuge tubes, spun down and resuspended in dH2O (final volume per harvest approximately 60 ml). Protein determination is made according to the method of Lowry (Biorad DC Assay Kit). Following the determination of the protein concentration, the protein is diluted into distilled water with 10% DMSO to the appropriate volume based on expression levels (Bmax). The concentrated protein is aliquoted into 1.5 ml screw top eppendorf tubes and placed into a −80° C. freezer.
Assay Requirement: 1 cryovial per two 96 well plates
0.5M Tris Wash Buffer, pH 7.7 • a) 44.4 g Tris HCl • 26.5 g Tris Base • q.s. to 1 Liter (0.5 M Tris buffer, pH 7.7 at 37° C.) • b) make a 1:10 dilution in distilled H2O (0.05 M. Tris buffer, pH 7.7) • 2. Tris Buffer containing physiological salts • a) Stock buffer • NaCl 7.014 g • KCl 0.372 g • CaCl2 0.222 g • MgCl2 0.204 g • q.s. To 100 ml with 0.5 M. Tris Buffer • b) Dilute 1:10 in distilled H2O • This yields 0.05 M. Tris HCl, pH 7.7, containing NaCl (120 mM), KCl (5 mM), CaCl2 (2 mM) and MgCl2 (1 mM) • Optional: add 0.1% ascorbic acid and check pH (in assays with compounds that may oxidize. • c) 1.0% polyethyleneimine stock in 0.5M Tris (reagent 1.a) • Dilute 1:10 in distilled H2O Binding Assay • 750 μl Tissue • 150 μl [^3H]NMSP • 100 μl vehicle (for total binding) or 30 μM (−)
eticlopride (for nonspecific binding) or appropriate drug concentration.
The 96-Well Packard Unifilters GF/B are incubated for >1 h at 25° C. in 0.1% polyethylenimine. The cold tissue is added last and mixed on a orbital shaker for a few seconds and is then incubated at 37° C. for 30 min in a shaking water bath. The assay is stopped by rapid filtration through Packard Unifilter plates. The filter membranes are then washed with 15 ml of ice-cold 0.05 M Tris buffer. The filters are then dried (˜15 min. under a heat lamp or incubated for 15 min. in a 60° C. oven) and a bottom seal is applied. Then 40 μl of Packard Microscint 20 scintillation cocktail are added and a permanent topseal (Type P) is applied and heat sealed. The plates are placed in a Packard Topcount.
Specific binding is defined as the difference between total binding and the binding in the presence of 3 μM S-(−)-eticlopride. Total binding is approximately 10% of the total added ligand. […] The percent inhibition at each drug concentration is the mean of duplicate determinations.

[3] = biological target: T2, human dopamine D1 receptor (Homo sapiens, UniProt P21728); test: [3H]-SCH-23390 binding to cloned human dopamine D1 receptors (CHO cell membranes)
T2 construct: A 1.4 Kb Hind III to Xho I fragment was subcloned into the vector pMMLV; expressed in transfected cells; host or cells: CHO cells, clone CHO-D1M#9 (plasmid pHD1MMLV), membranes
T2 sequence (P21728 whole entry, the tested form may be a part): as the sequence (P21728 whole entry) above

[4] = agonist activity at the D1 receptor, adenylate cyclase assay, D1 transfected CHO cell line, read-out: D1 EC50
[5] = competitive binding, [3H]-SCH-23390, cloned human D1 in CHO membranes, read-out: D1 affinity Ki

Row | Ki [2] | EC50 [1, 4] | Ki [3, 5] | Structure (SMILES) | EC50 [1] | Ki [3]
1 | ≥ 10000 nM | 20 nM | 486 nM | Cc1ccc2c(c1O)C[C@@H](C1CCN(C(=O)Nc3cc(C(F)(F)F)ccc3F)CC1)O[C@H]2CN [Example 124, 4-((1R,3S)-1-Aminomethyl-5-hydroxy-6-methyl-isochroman-3-yl)-piperidine-1-carboxylic acid (2-fluoro-5-trifluoromethyl-phenyl)-amide hydrobromide] |  | 
2 | ≥ 10000 nM | 60 nM | 79 nM | COc1cccc(NC(=O)N2CCC([C@@H]3Cc4c(ccc(C)c4O)[C@H](CN)O3)CC2)c1 [Example 125, 4-((1R,3S)-1-Aminomethyl-5-hydroxy-6-methyl-isochroman-3-yl)-piperidine-1-carboxylic acid (3-methoxy-phenyl)-amide] |  | 
3 | 328 nM | 1.7 nM | 21 nM | Cc1ccc2c(c1O)C[C@@H](C1CCN(C(=O)Nc3cccc(O)c3)CC1)O[C@H]2CN [Example 126, 4-((1R,3S)-1-Aminomethyl-5-hydroxy-6-methyl-isochroman-3-yl)-piperidine-1-carboxylic acid (3-hydroxy-phenyl)-amide] |  | 
4 | ≥ 10000 nM | 6000 nM | 106 nM | Cc1ccc2c(c1O)C[C@@H](C1CCN(C(=O)Nc3ccc(F)cc3)CC1)O[C@H]2CN [Example 128, 4-((1R,3S)-1-Aminomethyl-5-hydroxy-6-methyl-isochroman-3-yl)-piperidine-1-carboxylic acid (4-fluoro-phenyl)-amide hydrochloride] |  | 
5 | ≥ 10000 nM | 2000 nM | 113 nM | Cc1ccc2c(c1O)C[C@@H](C1CCN(C(=O)Nc3ccccc3F)CC1)O[C@H]2CN [Example 129, 4-((1R,3S)-1-Aminomethyl-5-hydroxy-6-methyl-isochroman-3-yl)-piperidine-1-carboxylic acid (2-fluoro-phenyl)-amide hydrochloride] |  | 
6 | ≥ 10000 nM | 6.4 nM | 51 nM | Cc1ccc2c(c1O)C[C@@H](C1CCN(C(=O)N(C)c3ccccc3)CC1)O[C@H]2CN [Example 131, 4-((1R,3S)-1-Aminomethyl-5-hydroxy-6-methyl-isochroman-3-yl)-piperidine-1-carboxylic acid methyl-phenyl-amide hydrochloride] |  | 
7 | ≥ 100000 nM | 2.8 nM | 61.5 nM | Cc1ccc2c(c1O)C[C@@H](C1CCN(C(=O)N3CCCC3)CC1)O[C@H]2CN [Example 135, [4-((1R,3S)-1-Aminomethyl-5-hydroxy-6-methyl-isochroman-3-yl)-piperidin-1-yl]-pyrrolidin-1-yl-methanone hydrochloride] |  | 
8 | 204 nM | 0.11 nM | 137 nM | CCCCN(CCCC)C(=O)N1CCC([C@@H]2Cc3c(ccc(C)c3O)[C@H](CN)O2)CC1 [Example 139, 4-((1R,3S)-1-Aminomethyl-5-hydroxy-6-methyl-isochroman-3-yl)-piperidine-1-carboxylic acid dibutylamide hydrochloride] |  | 
9 | ≥ 100000 nM | 1.9 nM | 18 nM | Cc1ccc2c(c1O)C[C@@H](C1CCN(S(=O)(=O)Cc3ccccc3)CC1)O[C@H]2CN [Example 142, (1R,3S)-1-Aminomethyl-6-methyl-3-(1-phenylmethanesulfonyl-piperidin-4-yl)-isochroman-5-ol hydrochloride] |  | 
10 | 602 nM | 3.6 nM | 91 nM | COc1ccc(S(=O)(=O)N2CCC([C@@H]3Cc4c(ccc(C)c4O)[C@H](CN)O3)CC2)cc1OC [Example 144, (1R,3S)-1-Aminomethyl-3-[1-(3,4-dimethoxy-benzenesulfonyl)-piperidin-4-yl]-6-methyl-isochroman-5-ol hydrochloride] |  | 
11 | 531 nM | 79 nM | 89 nM | Cc1ccc2c(c1O)C[C@@H](C1CCN(S(=O)(=O)c3ccc(C(C)(C)C)cc3)CC1)O[C@H]2CN [Example 146, (1R,3S)-1-Aminomethyl-3-[1-(4-tert-butyl-benzenesulfonyl)-piperidin-4-yl]-6-methyl-isochroman-5-ol hydrochloride] |  | 
12 | 623 nM | 394 nM | 108 nM | Cc1ccc2c(c1O)C[C@@H](C1CCN(S(=O)(=O)c3ccc4ccccc4c3)CC1)O[C@H]2CN [Example 147, (1R 3S)-1-Aminomethyl-6-methyl-3-[1-(naphthalene-2-sulfonyl)-piperidin-4-yl]-isochroman-5-ol hydrochloride] |  | 
13 | ≥ 100000 nM | 58 nM | 82 nM | Cc1ccc2c(c1O)C[C@@H](C1CCN(S(=O)(=O)c3cc(Cl)ccc3Cl)CC1)O[C@H]2CN [Example 151, (1R,3S)-1-Aminomethyl-3-[1-(2,5-dichloro-benzenesulfonyl)-piperidin-4-yl]-6-methyl-isochroman-5-ol hydrochloride] |  | 
14 | 434 nM | 460 nM | 2.07 nM | Cc1ccc2c(c1O)C[C@@H](C1CCN(S(=O)(=O)CC(F)(F)F)CC1)O[C@H]2CN [Example 157, (1R,3S)-1-Aminomethyl-6-methyl-3-[1-(2,2,2-trifluoro-ethanesulfonyl)-piperidin-4-yl]-isochroman-5-ol hydrochloride] |  | 
15 | ≥ 100000 nM | 11 nM | 95.2 nM | Cc1ccc2c(c1O)C[C@@H](C1CCN(S(=O)(=O)Cc3ccccc3[N+](=O)[O-])CC1)O[C@H]2CN [Example 158, (1R,3S)-1-Aminomethyl-6-methyl-3-[1-(2-nitro-phenylmethanesulfonyl)-piperidin-4-yl]-isochroman-5-ol hydrochloride] |  | 
16 | ≥ 100000 nM | 35 nM | 64.5 nM | Cc1ccc2c(c1O)C[C@@H](C1CCN(S(=O)(=O)CCc3cccc4ccccc34)CC1)O[C@H]2CN [Example 159, (1R,3S)-1-Aminomethyl-6-methyl-3-[1-(2-naphthalen-1-yl-ethanesulfonyl)-piperidin-4-yl]-isochroman-5-ol hydrochloride] |  | 
17 | 528 nM | 77 nM | 74 nM | Cc1ccc2c(c1O)C[C@@H](C1CCN(S(=O)(=O)N3CCc4ccccc4C3)CC1)O[C@H]2CN [Example 167, (1R,3S)-1-Aminomethyl-3-[1-(3,4-dihydro-1H-isoquinoline-2-sulfonyl)-piperidin-yl]-6-methyl-isochroman-5-ol hydrochloride] |  | 

Row | Structure (SMILES) | Ki [2] | EC50 [1, 4] | Ki [3, 5] | EC50 [1] | Ki [3]
18 | Cc1ccc2c(c1O)C[C@@H](C1CCN(C(=O)Oc3ccc(Cl)cc3)CC1)O[C@H]2CN [Example 115, 4-((1R,3S)-1-Aminomethyl-5-hydroxy-6-methyl-isochroman-3-yl)-piperidine-1-carboxylic acid 4-chloro-phenyl ester hydrochloride] | 506 nM |  |  | 48 nM | 39 nM
19 | Cc1ccc2c(c1O)C[C@@H](C1CCN(C(=O)Oc3ccccc3Cl)CC1)O[C@H]2CN [Example 116, 4-((1R,3S)-1-Aminomethyl-5-hydroxy-6-methyl-isochroman-3-yl)-piperidine-1-carboxylic acid 2-chloro-phenyl ester hydrochloride] | ≥ 100000 nM |  |  | 4.6 nM | 32.6 nM
20 | Cc1ccc2c(c1O)C[C@@H](C1CCN(C(=O)Oc3ccc(Br)cc3)CC1)O[C@H]2CN [Example 117, 4-((1R,3S)-1-Aminomethyl-5-hydroxy-6-methyl-isochroman-3-yl)-piperidine-1-carboxylic acid 4-bromo-phenyl ester hydrochloride] | 404 nM |  |  | 4.3 nM | 59 nM
21 | Cc1ccc2c(c1O)C[C@@H](C1CCN(C(=O)Oc3ccc(F)cc3)CC1)O[C@H]2CN [Example 118, 4-((1R,3S)-1-Aminomethyl-5-hydroxy-6-methyl-isochroman-3-yl)-piperidine-1-carboxylic acid 4-fluoro-phenyl ester hydrochloride] | ≥ 10000 nM |  |  | 8.5 nM | 40 nM
22 | Cc1ccc2c(c1O)C[C@@H](C1CCN(C(=O)Oc3ccccc3C(F)(F)F)CC1)O[C@H]2CN [Example 119, 4-((1R,3S)-1-Aminomethyl-5-hydroxy-6-methyl-isochroman-3-yl)-piperidine-1-carboxylic acid 2-trifluoromethyl-phenyl ester hydrochloride] | 649 nM |  |  | 3.1 nM | 54 nM
23 | COc1ccc(OC(=O)N2CCC([C@@H]3Cc4c(ccc(C)c4O)[C@H](CN)O3)CC2)cc1 [Example 120, 4-((1R,3S)-1-Aminomethyl-5-hydroxy-6-methyl-isochroman-3-yl)-piperidine-1-carboxylic acid 4-methoxy-phenyl ester hydrochloride] | 767 nM |  |  | 36 nM | 45 nM
24 | Cc1ccc2c(c1O)C[C@@H](C1CCN(C(=O)Oc3ccccc3O)CC1)O[C@H]2CN [Example 121, 4-((1R,3S)-1-Aminomethyl-5-hydroxy-6-methyl-isochroman-3-yl)-piperidine-1-carboxylic acid 2-hydroxy-phenyl ester hydrochloride] | 613 nM |  |  | 2.5 nM | 31 nM
25 | Cc1ccc2c(c1O)C[C@@H](C1CCN(C(=O)Oc3ccc4ccccc4c3)CC1)O[C@H]2CN [Example 123, 4-((1R,3S)-1-Aminomethyl-5-hydroxy-6-methyl-isochroman-3-yl)-piperidine-1-carboxylic acid naphthalen-2-yl ester hydrochloride] | 154 nM |  |  | 10 nM | 37 nM
